Assay results as given in paper PMC4810358, “Applicability of the Rayleigh equation for enantioselective metabolism of chiral xenobiotics by microsomes, hepatocytes and in-vivo retention in rabbit tissues” (Scientific Reports, 2016).
Values joined by “and” are separate entries in the source; they are usually repeats but may differ in a detail not shown here. Equal values may be shown once. Read-outs that look alike come from different tables or passages of the source. Values belong to the molecule of their own block, whether it stands above or below them.

Assays:
[1] = enantioselective degradation of paclobutrazol in rat liver microsomes (Wu et al.); type: in vitro ADME; details: reconstructed from data of Fig. 3A in ref 19; R^2 0.97
Experimental: (§1) In addition to the microsome studies, the Rayleigh equation was fitted to reported studies on biodegradation of chiral compounds using liver microsomes and hepatocytes for which there was sufficient data available. We focused on studies published on years 2011–2015 that reported on first order kinetics and/or provided concentration - time profiles of the individual enantiomers after incubation of the racemate with the metabolizer, i.e. systems analyzed by approach II in the introduction.

[2] = de-methylation (enantioselective degradation) by human liver microsomes; details: HLM; for Overall first order kinetic constant, kc: racemate, 37 °C, 0–120 min; for Enantiomeric enrichment factor, εER: mean ± 95% confidence interval of Rayleigh slope, n = 3, NE = no enrichment
Experimental: (§2) The reactions were initiated by the addition of 120 μl NADPH-regenerating system (100 μL of solution A and 20 μL of solution B) that were added after a 3-min pre-incubation of the incubation mixtures containing 10 μl of substrate (1 g/L), 50 μl human/rat hepatic microsomes (20 mg protein/ml) and […] sodium phosphate buffer, 0.1 M pH 7.4 final volume was 500 μl. The reactions were stopped at time intervals by cooling on ice and addition of 100 μl acetonitrile followed by the addition of 20 μL internal standards stock solution (0.1 g/L). After termination of the reaction 200 microliter sodium carbonate solution (1 M, pH 12) was added and samples were then vigorously shaken for 1 min and consequently extracted into 6 ml n-hexane/acetonitrile (98/2 vol/vol) using an Intelli mixer on 50 rpm for 5 min. after centrifugation for 10 min (6,000 rpm) the upper organic layer was collected and the procedure was repeated. The samples were eventually evaporated till dry under a gentle stream of nitrogen. The residue was dissolved in 200 microliter methanol and analyzed by HPLC-MS. These degradation studies were done in duplicates.
(§3) Control assays were run under the same conditions, with 200 μL insect control supersomes (5 mg protein/ml) used as a negative control, i.e containing no CYP450 but the same protein content (cytochrome b5), while 10 μl of Verapamil (1 g/L) and 50 μl human microsomes (20 mg protein/ml) was incubated for 30 min as a positive control.
(§4) The chiral separation method was based on methodology of Begnall et al.[62]. […] For all separations the column and autosampler were maintained at 25 °C, with an optimal chromatographic run time of 24 minutes, the injection volume was 10 μL. QTOF mass spectrometer equipped with an electrospray ionization source (Agilent G3251A Dual ESI) was used for chiral drug identification and quantification. Analysis was performed in positive mode with a capillary voltage potential of 4000 V; the nebulizer gas pressure was set to 40 psi and drying gas flow was 10 L/min, with a drying gas temperature of 300 °C. The fragmentor voltage was set at 140 V, and skimmer voltage was 65 V. Scan range was 50–1000 m/z, the other MS parameters remained at auto-tune conditions.
(§5) The enantiomeric ratios were expressed as the ER – the peak area of one enantiomer (the more abundant) divided by that of the other enantiomer.

[3] = de-methylation (enantioselective degradation) by Sprague Dawley rat liver microsomes; type: in vitro ADME; details: RLM-SD; for Overall first order kinetic constant, kc: racemate, 37 °C, 0–120 min; for Enantiomeric enrichment factor, εER: mean ± 95% confidence interval of Rayleigh slope, n = 3, NE = no enrichment
Experimental: as §2, §3, §4, §5

[4] = de-methylation (enantioselective degradation) by Wistar Han rat liver microsomes; type: in vitro ADME; details: RLM-W; for Overall first order kinetic constant, kc: racemate, 37 °C, 0–120 min; for Enantiomeric enrichment factor, εER: mean ± 95% confidence interval of Rayleigh slope, n = 3, NE = no enrichment
Experimental: as §2, §3, §4, §5

[5] = de-methylation (enantioselective degradation) by Lewis rat liver microsomes; type: in vitro ADME; details: RLM-L; for Overall first order kinetic constant, kc: racemate, 37 °C, 0–120 min; for Enantiomeric enrichment factor, εER: mean ± 95% confidence interval of Rayleigh slope, n = 3, NE = no enrichment
Experimental: as §2, §3, §4, §5

[6] = de-methylation by liver microsomes, statements pooled over all microsome sources; type: in vitro ADME, human and rat; details: through all the incubations with the various microsomes
Experimental: as §2, with “The samples were eventually evaporated till dry under a gentle stream of nitrogen.” left out, “These degradation studies were done in duplicates.” left out
The chiral separation method was based on methodology of Begnall et al.[62]. […] QTOF mass spectrometer equipped with an electrospray ionization source (Agilent G3251A Dual ESI) was used for chiral drug identification and quantification. […]
as §5

[7] = cited from earlier work; for first order half-life: hepatocytes from male Sprague-Dawley rats; for individual first order rate constant: myclobutanil, hepatocytes from male Sprague–Dawley rats
[8] = set-up: method as in PMID 24027055; details: male Sprague–Dawley rat liver microsomes; cited from earlier work
[9] = set-up: method as in PMID 25820472; details: rat liver microsomes; cited from earlier work
[10] = stereoselective degradation of metalaxyl in hepatic microsomes (Zhang et al.); type: in vitro ADME, rat and rabbit; details: for individual degradation constant: calculated from concentration-time data of Fig. 3a in ref 22, R^2 = 0.98
Experimental: as §1

[11] = hepatic microsomes; cited from earlier work
[12] = loach liver microsomes; cited from earlier work
[13] = enantioselective metabolism in rat hepatocytes (reported studies); type: in vitro ADME
Experimental: as §1
Wang et al.[24] studied the enantioselective metabolism of the fungicide hexaconazole as well, they used male Sprague–Dawley rat hepatocytes. […] In a second test case, Wang et al.[52] studied the degradation of the fungicide myclobutanil in hepatocytes from male Sprague–Dawley rats.

[14] = enantioselective metabolism of diclofop-methyl in fish liver microsomes (Ma et al.); type: in vitro ADME, loach (Misgurnus anguillicaudatus); details: reconstructed from data of Fig. 3A in ref 50; R^2 = 0.94
Experimental: as §1

[15] = metabolism of hexaconazole in male Sprague–Dawley rat liver microsomes (Shen et al.); type: in vitro ADME; details: reconstructed from data of Fig. 3A in ref 20; R^2 = 0.99
Experimental: as §1

[16] = in vivo enantioselective behaviour in rabbit plasma and tissues after intravenous racemate (Sun et al.)
Description: For example, Sun et al.[26] have reviewed the enantioselective behavior of the fungicide myclobutanil enantiomers in variant rabbit tissues following intravenous administration of the racemic fungicide. Using the plasma concentration-time curves of the two enantiomers (presented in Fig. 1A in ref. [26]) we obtained the enantiomeric enrichment factor of −28 ± 5 (R^2 = 0.97). Analysis of the distribution of myclobutanil in various tissues, presented in Fig. 3 in ref. [26], obtained the enantiomeric enrichment factors of −33 ± 16 (R^2 = 0.92) for the liver, −20 ± 6 (R^2 = 0.97) for the brain, −32 ± 16 (R^2 = 0.89) for the kidney and −21 ± 6 (R^2 = 0.97) for the muscle. […] This quantitative ranking is obscured by the large number of time trace data points in the original presentation. Another example can be presented by the study of Kong et al.[25] reporting on the stereoselective metabolism of the alpha blocker doxazosin (DOX) in vivo in male Sprague–Dawley rats.

SMILES: CC(C)(C)[C@@H](O)[C@@H](Cc1ccc(Cl)cc1)n1cncn1 (racemic) [(2RS, 3RS)-paclobutrazol]
enantiomeric enrichment factor [1]: −66 ± 14%

Overall first order kinetic constant, kc [2]: 0.007 min⁻¹
Enantiomeric enrichment factor, εER [2]: −36 ± 3 (0.95) %
Overall first order kinetic constant, kc [3]: 0.02 min⁻¹
Enantiomeric enrichment factor, εER [3]: −10 ± 4 (0.92) %
Overall first order kinetic constant, kc [4]: 0.07 min⁻¹
Enantiomeric enrichment factor, εER [4]: −53 ± 3 (0.95) %
Overall first order kinetic constant, kc [5]: 0.007 min⁻¹
SMILES: CN(C)CCCC1(c2ccc(F)cc2)OCc2cc(C#N)ccc21 (racemic) [CTM, (R,S)-citalopram]

SMILES: CNCCC(Oc1ccc(C(F)(F)F)cc1)c1ccccc1 (racemic) [FLX, (R,S)-fluoxetine]
Overall first order kinetic constant, kc [2]: 0.01 min⁻¹
Overall first order kinetic constant, kc [3]: 0.02 min⁻¹
Overall first order kinetic constant, kc [4]: 0.06 min⁻¹
Overall first order kinetic constant, kc [5]: 0.04 min⁻¹

Overall first order kinetic constant, kc [2]: 0.004 min⁻¹
Enantiomeric enrichment factor, εER [2]: −237 ± 29% and −237 ± 29 (0.92) %
Overall first order kinetic constant, kc [3]: 0.02 min⁻¹
Enantiomeric enrichment factor, εER [3]: −11 ± 6 (0.92) %
Overall first order kinetic constant, kc [4]: 0.008 min⁻¹
Enantiomeric enrichment factor, εER [4]: −38 ± 5 (0.92) %
Overall first order kinetic constant, kc [5]: 0.03 min⁻¹
Enantiomeric enrichment factor, εER [5]: −53 ± 12 (0.98) %
SMILES: CN1CCN2c3ccccc3Cc3ccccc3C2C1 (racemic) [MNS, (R,S)-mianserin]

Overall first order kinetic constant, kc [2]: 0.025 min⁻¹
Enantiomeric enrichment factor, εER [2]: −7 ± 1 (0.98) %
Overall first order kinetic constant, kc [3]: 0.009 min⁻¹
Enantiomeric enrichment factor, εER [3]: −9 ± 1 (0.96) %
Overall first order kinetic constant, kc [4]: 0.02 min⁻¹
Enantiomeric enrichment factor, εER [4]: −4 ± 1% and −4 ± 1 (0.91) %
Overall first order kinetic constant, kc [5]: 0.007 min⁻¹
Enantiomeric enrichment factor, εER [5]: −59 ± 2 (0.94) %
SMILES: CN(C)CC(c1ccc(O)cc1)C1(O)CCCCC1 (racemic) [O-DMV, (R,S)-O-desmethylvanlafaxine]

Overall first order kinetic constant, kc [2]: 0.01 min⁻¹
Overall first order kinetic constant, kc [3]: 0.03 min⁻¹
Overall first order kinetic constant, kc [4]: 0.05 min⁻¹
Overall first order kinetic constant, kc [5]: 0.009 min⁻¹
enantiomeric ratio, ER [6]: 1.1 ± 0.08
SMILES: COc1ccc(C(CN(C)C)C2(O)CCCCC2)cc1 (racemic) [VNF, (R,S)-venlafaxine]

SMILES: CCOC1Oc2ccc(OS(C)(=O)=O)cc2C1(C)C (single isomer, unassigned; (+)) [(+) ETO]
first order half-life ([7]; ethofumesate): 120 min

SMILES: CCCCCCC(C)OC(=O)COc1nc(F)c(Cl)c(N)c1Cl (single isomer, unassigned; (+)) [(+) FPMH]
first order half-life ([7]; fluroxypyr methylheptyl ester): 5.1 min

SMILES: CCCCC(O)(Cn1cncn1)c1ccc(Cl)cc1Cl (single isomer, unassigned; (+)) [(+)-hexaconazole]
individual first order degradation rate constant [8]: 0.09324 min⁻¹

SMILES: CCCCC(C#N)(Cn1cncn1)c1ccc(Cl)cc1 (single isomer, unassigned; (+)) [(+)-myclobutanil]
individual first order rate constant [7]: 0.065 h⁻¹

SMILES: CCOC1Oc2ccc(OS(C)(=O)=O)cc2C1(C)C (single isomer, unassigned; (-)) [(−) ETO]
first order half-life ([7]; ethofumesate): 246 min

SMILES: CCCCCCC(C)OC(=O)COc1nc(F)c(Cl)c(N)c1Cl (single isomer, unassigned; (-)) [(−) FPMH]
first order half-life ([7]; fluroxypyr methylheptyl ester): 13.1 min

SMILES: CCCCC(O)(Cn1cncn1)c1ccc(Cl)cc1Cl (single isomer, unassigned; (-)) [(−)-hexaconazole]
individual first order degradation rate constant [8]: 0.06804 min⁻¹

SMILES: CCCCC(C#N)(Cn1cncn1)c1ccc(Cl)cc1 (single isomer, unassigned; (-)) [(−)-myclobutanil]
individual first order rate constant [7]: 0.046 h⁻¹

SMILES: CC(C)(C)[C@@H](O)[C@@H](Cc1ccc(Cl)cc1)n1cncn1 [(2R, 3R)-paclobutraz]
individual first order degradation rate constant [9]: 0.0373 min⁻¹

SMILES: CC(C)(C)[C@H](O)[C@H](Cc1ccc(Cl)cc1)n1cncn1 [(2S, 3S)-paclobutrazol]
individual first order degradation rate constant [9]: 0.0634 min⁻¹

SMILES: COCC(=O)N(c1c(C)cccc1C)[C@@H](C)C(=O)OC [(+)-S-MX]
individual degradation constant [10]: 0.0864 min⁻¹
half-life [11]: 7.71 min

SMILES: COC(=O)[C@@H](C)Oc1ccc(Oc2ccc(Cl)cc2Cl)cc1 [(R)-DM]
individual first order degradation rate constant [12]: 0.0346 min⁻¹

SMILES: COC(=O)[C@H](C)Oc1ccc(Oc2ccc(Cl)cc2Cl)cc1 [(S)-DM]
individual first order degradation rate constant [12]: 0.1904 min⁻¹

SMILES: COCC(=O)N(c1c(C)cccc1C)[C@H](C)C(=O)OC [(−)-R-MX]
individual degradation constant [10]: 0.0415 min⁻¹
half-life [11]: 15.58 min

SMILES: CCOC1Oc2ccc(OS(C)(=O)=O)cc2C1(C)C (stereo not shown) [ETO, ethofumesate]
enantiomeric enrichment factor ([13]; ETO, reconstructed from concentration–time curves of Fig. 2 in ref 53, R^2 = 0.96): −75 ± 11%

SMILES: COC(=O)C(C)Oc1ccc(Oc2ccc(Cl)cc2Cl)cc1 (stereo not shown) [diclofop-methyl]
enantiomeric enrichment factor [14]: −142 ± 40%

SMILES: CCCCC(O)(Cn1cncn1)c1ccc(Cl)cc1Cl (stereo not shown) [hexaconazole]
enantiomeric enrichment factor [15]: −37 ± 2%
enantiomeric enrichment factor ([13]; hexaconazole, reconstructed from Fig. 3a in ref 24, R^2 = 0.99): −184 ± 6%

SMILES: COCC(=O)N(c1c(C)cccc1C)C(C)C(=O)OC (stereo not shown) [metalaxyl]
Enantiomeric enrichment factor, εER ([10]; reconstructed from data of Fig. 3a in ref 22, R^2 = 0.94): −78 ± 14%

SMILES: CCCCC(C#N)(Cn1cncn1)c1ccc(Cl)cc1 (stereo not shown) [myclobutanil]
enantiomeric enrichment factor ([13]; myclobutanil, reconstructed from Fig. 3a in ref 52, R^2 = 0.97): −24 ± 2%
enantiomeric enrichment factor ([16]; rabbit brain, from Fig. 3 in ref 26, R^2 = 0.97): −20 ± 6
enantiomeric enrichment factor ([16]; rabbit kidney, from Fig. 3 in ref 26, R^2 = 0.89): −32 ± 16
enantiomeric enrichment factor ([16]; rabbit liver, from Fig. 3 in ref 26, R^2 = 0.92): −33 ± 16
enantiomeric enrichment factor ([16]; rabbit muscle, from Fig. 3 in ref 26, R^2 = 0.97): −21 ± 6
enantiomeric enrichment factor ([16]; rabbit plasma, intravenous racemate, from Fig. 1A in ref 26, R^2 = 0.97): −28 ± 5
decay kinetics / adherence to the Rayleigh law ([16]; rabbits' hearts and fats, data of ref 26): does not follow linear kinetics
